Source: US9550732B2, “Salt of pyrrolidin-3-yl acetic acid derivative and crystals thereof” (Eisai R&D Management Co., Ltd., priority 2013, dated 2017)

Tested on: T cell transfer colitis model
Test: Amelioration of body weight loss in T cell transfer-induced colitis model
Assay type: in vivo
Conditions: colitis-induced SCID mice injected with CD4-positive CD45RB-high cells; orally once a day from Day 16 to 31; body weight Day 19-31
Description: By using colitis-induced SCID mice in which CD4-positive, CD45RB-high cells isolated from BALB/c mice splenocytes were injected, the efficacy of the example compounds was evaluated by the body weight changes. The experiment was performed over 31 days. On Day 1, CD4-positive, CD45RB-high cells isolated from the spleen of BALB/c mice (5×10^5 cells/mouse) were intravenously administered to SCID mice. From Day 16 to 31, the example compound was orally administered to the SCID mice once a day, followed by measuring body weights of all animals on Day 19, 22, 24, 26, 29 and 31. The efficacy was evaluated by body weight changes on Day 19, 22, 24, 26, 29 or 31. The body weight change (%) was determined by the formula shown below, where [A] is the body weight on Day 16, and [B] is the body weight on each day of body weight measurement (Day 19, 22, 24, 26, 29 or 31). body weight change (%)=B/A×100 (2) Results The results are shown in FIG. 6. The abscissa in the figures indicates the number of days elapsed, where the day on which CD4-positive, CD45RB-high cells isolated from the spleen of BALB/c mice (5×10^5 cells/mouse) were intravenously administered to SCID mice is Day 0.

C[C@H]1CN(Cc2c(Cl)cccc2C(F)(F)F)C[C@@]1(CC(=O)O)C(=O)NC1CCN(CC2=CCCCC2)CC1 [compound (1), 2-[(3S,4R)-1-{[2-chloro-6-(trifluoromethyl)phenyl]methyl}-3-{[1-(cyclohex-1-en-1-ylmethyl)piperidin-4-yl]carbamoyl}-4-methylpyrrolidin-3-yl]acetic acid]
effect on body weight change (FIG. 6): weight reduction-suppressing effect
